Our source for the IC50 values is US20220389061A1, “IMMUNOMODULATORS” (priority 2019, published 2022).

Structures are written as SMILES. Starred links: 1 amine or outer side, 2 acyl side, 3 side chain; linkers in the order of their positions; H or OH if unused. Positions of bridges follow the written chain, without caps; N, C: chain ends. Non-standard residues stand in square brackets, D forms with d. Residues, ends and D or L forms follow the SMILES beside them. Groups on a side chain read outwards from the residue. *: point of attachment. Trp(1-CH2COOH) = N[C@@H](Cc1cn(CC(=O)O)c2ccccc12)C(=O)O; Benzoyl(2-(4-MeOPh)) = COc1ccc(-c2ccccc2C(=O)*)cc1; X23 = COc1cc(NC(=S)*)ccc1-n1cnc(Cl)c1; X24 = COc1cc(NC(=S)*)ccc1-n1cnc(C)n1; X49 = N#Cc1ccccc1NC(=N)c1ccccc1N*; Hyp = O=C(O)[C@@H]1C[C@@H](O)CN1; X80 = S=C(Nc1ccc(-n2cccn2)cc1)*; X84 = COc1cc(NC(=S)*)cc(OC)c1OC; X94 = S=C(Nc1ccc(N2CCOCC2)nc1)*; X11 = S=C(Nc1ccccc1-c1ccccc1)*; X55 = COc1cc(NC(=S)*)cc(OC)c1; NMeNle = CCCC[C@H](NC)C(=O)O; X6 = CCCCCCCOc1ccc(N*)cc1; NMeA = CN[C@@H](C)C(=O)O; Dab = NCC[C@H](N)C(=O)O; Dap = NC[C@H](N)C(=O)O; X77 = Clc1cccc(N*)c1Cl; CO = O=C([*:1])[*:2]

The IC50 is the concentration that gives 50% inhibition.

In the first assay the target is T1, PD-1/PD-L1 (Homo sapiens, UniProt Q9NZQ7).
T1 construct: TVMV protease site linker (C); made in house; host or cells: HEK293T cells
T1 sequence (Q9NZQ7 18-239): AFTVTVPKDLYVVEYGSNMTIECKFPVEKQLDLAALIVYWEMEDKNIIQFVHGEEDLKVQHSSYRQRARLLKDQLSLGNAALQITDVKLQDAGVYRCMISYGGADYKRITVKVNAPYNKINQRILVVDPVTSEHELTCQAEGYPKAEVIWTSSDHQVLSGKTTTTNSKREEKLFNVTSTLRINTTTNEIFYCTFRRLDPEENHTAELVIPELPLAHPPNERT
The experiment in a line: PD-1/PD-L1 Homogenous Time-Resolved Fluorescence (HTRF) binding assay.
Settings: not given
Put shortly:
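HTRF read-out using europium cryptate anti-Ig (1 nM) and APC anti-His (20 nM) on extracellular-domain fusion proteins in dPBS/0.1% BSA/0.05% Tween-20. Inhibitor first incubated 15 min with 10 nM PD-L1-His, followed by 20 nM PD-1-Ig for another 15 min.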
(In general: Time-resolved FRET reads energy transfer from a long-lived donor to a nearby acceptor.)
On to `CCCC[C@H]1C(=O)N(C)[C@@H](CCCC)C(=O)N[C@@H](CC(C)C)C(=O)N[C@H](C(=O)NCC(N)=O)CSCC(=O)N[C@@H](Cc2ccc(O)cc2)C(=O)N(C)[C@@H](C)C(=O)N[C@@H](CC(N)=O)C(=O)N2CCC[C@H]2C(=O)N[C@@H](CNC(=O)Nc2cccc(Cl)c2Cl)C(=O)N[C@@H](CC(C)C)C(=O)N2C[C@H](O)C[C@H]2C(=O)N[C@@H](Cc2c[nH]c3ccccc23)C(=O)N[C@@H](CCNC(=O)Nc2cccc(Cl)c2Cl)C(=O)N[C@@H](Cc2cn(CC(=O)O)c3ccccc23)C(=O)N1C` [Example 1084] ({CH2CO}-Y[NMeA]NP[Dap]([CO-X77])L[Hyp]W[Dab]([CO-X77])[Trp(1-CH2COOH)][NMeNle][NMeNle]LCG-NH2; thioether N-14), for which the IC50 turned out to be 2.6 nM.

The same assay, now with this note: PD-L1-His 10 nM pre-incubated with inhibitor, PD-1-Ig 20 nM; read-out: HTRF IC50.
Take `CCCC[C@H]1C(=O)N(C)[C@@H](CCCC)C(=O)N[C@@H](CC(C)C)C(=O)N[C@H](C(=O)NCC(N)=O)CSCC(=O)N[C@@H](Cc2ccc(O)cc2)C(=O)N(C)[C@@H](C)C(=O)N[C@@H](CC(N)=O)C(=O)N2CCC[C@H]2C(=O)N[C@@H](CNC(=S)Nc2cc(OC)c(OC)c(OC)c2)C(=O)N[C@@H](CC(C)C)C(=O)N2C[C@H](O)C[C@H]2C(=O)N[C@@H](Cc2c[nH]c3ccccc23)C(=O)N[C@@H](CCNC(=S)Nc2cc(OC)c(OC)c(OC)c2)C(=O)N[C@@H](Cc2cn(CC(=O)O)c3ccccc23)C(=O)N1C` [Example 1083] ({CH2CO}-Y[NMeA]NP[Dap](X84)L[Hyp]W[Dab](X84)[Trp(1-CH2COOH)][NMeNle][NMeNle]LCG-NH2; thioether N-14): the half-inhibitory concentration (IC50) turned out to be 0.6 nM.
Take `CCCC[C@H]1C(=O)N(C)[C@@H](CCCC)C(=O)N[C@@H](CC(C)C)C(=O)N[C@H](C(=O)NCC(N)=O)CSCC(=O)N[C@@H](Cc2ccc(O)cc2)C(=O)N(C)[C@@H](C)C(=O)N[C@@H](CC(N)=O)C(=O)N2CCC[C@H]2C(=O)N[C@@H](CNC(=S)Nc2ccccc2-c2ccccc2)C(=O)N[C@@H](CC(C)C)C(=O)N2C[C@H](O)C[C@H]2C(=O)N[C@@H](Cc2c[nH]c3ccccc23)C(=O)N[C@@H](CCN)C(=O)N[C@@H](Cc2cn(CC(=O)O)c3ccccc23)C(=O)N1C` [Example 1085] ({CH2CO}-Y[NMeA]NP[Dap](X11)L[Hyp]W[Dab][Trp(1-CH2COOH)][NMeNle][NMeNle]LCG-NH2; thioether N-14): the IC50 worked out at 3.8 nM.
Same read-out and setting: to `CCCC[C@H]1C(=O)N(C)[C@@H](CCCC)C(=O)N[C@@H](CC(C)C)C(=O)N[C@H](C(=O)NCC(N)=O)CSCC(=O)N[C@@H](Cc2ccc(O)cc2)C(=O)N(C)[C@@H](C)C(=O)N[C@@H](CC(N)=O)C(=O)N2CCC[C@H]2C(=O)N[C@@H](CNC(=S)Nc2cc(OC)cc(OC)c2)C(=O)N[C@@H](CC(C)C)C(=O)N2C[C@H](O)C[C@H]2C(=O)N[C@@H](Cc2c[nH]c3ccccc23)C(=O)N[C@@H](CCNC(=S)Nc2cc(OC)cc(OC)c2)C(=O)N[C@@H](Cc2cn(CC(=O)O)c3ccccc23)C(=O)N1C` [Example 1086] ({CH2CO}-Y[NMeA]NP[Dap](X55)L[Hyp]W[Dab](X55)[Trp(1-CH2COOH)][NMeNle][NMeNle]LCG-NH2; thioether N-14) belongs 4.2 nM.
`CCCC[C@H]1C(=O)N(C)[C@@H](CCCC)C(=O)N[C@@H](CC(C)C)C(=O)N[C@H](C(=O)NCC(N)=O)CSCC(=O)N[C@@H](Cc2ccc(O)cc2)C(=O)N(C)[C@@H](C)C(=O)N[C@@H](CC(N)=O)C(=O)N2CCC[C@H]2C(=O)N[C@@H](CNC(=O)Nc2ccccc2C(=N)Nc2ccccc2C#N)C(=O)N[C@@H](CC(C)C)C(=O)N2C[C@H](O)C[C@H]2C(=O)N[C@@H](Cc2c[nH]c3ccccc23)C(=O)N[C@@H](CCNC(=O)Nc2ccccc2C(=N)Nc2ccccc2C#N)C(=O)N[C@@H](Cc2cn(CC(=O)O)c3ccccc23)C(=O)N1C` [Example 1087] ({CH2CO}-Y[NMeA]NP[Dap]([CO-X49])L[Hyp]W[Dab]([CO-X49])[Trp(1-CH2COOH)][NMeNle][NMeNle]LCG-NH2; thioether N-14): the IC50 was found to be 2.6 nM.
`CCCC[C@H]1C(=O)N(C)[C@@H](CCCC)C(=O)N[C@@H](CC(C)C)C(=O)N[C@H](C(=O)NCC(N)=O)CSCC(=O)N[C@@H](Cc2ccc(O)cc2)C(=O)N(C)[C@@H](C)C(=O)N[C@@H](CC(N)=O)C(=O)N2CCC[C@H]2C(=O)N[C@@H](CNC(=O)Nc2ccccc2C(=N)Nc2ccccc2C#N)C(=O)N[C@@H](CC(C)C)C(=O)N2C[C@H](O)C[C@H]2C(=O)N[C@@H](Cc2c[nH]c3ccccc23)C(=O)N[C@@H](CCNC(=S)Nc2cc(OC)cc(OC)c2)C(=O)N[C@@H](Cc2cn(CC(=O)O)c3ccccc23)C(=O)N1C` [Example 1088] ({CH2CO}-Y[NMeA]NP[Dap]([CO-X49])L[Hyp]W[Dab](X55)[Trp(1-CH2COOH)][NMeNle][NMeNle]LCG-NH2; thioether N-14): the IC50 turned out to be 2.9 nM.
Turning to `CCCCCCCOc1ccc(NC(=O)NC[C@@H]2NC(=O)[C@@H]3CCCN3C(=O)[C@H](CC(N)=O)NC(=O)[C@H](C)N(C)C(=O)[C@H](Cc3ccc(O)cc3)NC(=O)CSC[C@@H](C(=O)NCC(N)=O)NC(=O)[C@H](CC(C)C)NC(=O)[C@H](CCCC)N(C)C(=O)[C@H](CCCC)N(C)C(=O)[C@H](Cc3cn(CC(=O)O)c4ccccc34)NC(=O)[C@H](CCN)NC(=O)[C@H](Cc3c[nH]c4ccccc34)NC(=O)[C@@H]3C[C@@H](O)CN3C(=O)[C@H](CC(C)C)NC2=O)cc1` [Example 1089] ({CH2CO}-Y[NMeA]NP[Dap]([CO-X6])L[Hyp]W[Dab][Trp(1-CH2COOH)][NMeNle][NMeNle]LCG-NH2; thioether N-14), the concentration for half-maximal inhibition (IC50) is 12 nM.
The same measure, in the same setting: to `CCCCCCCOc1ccc(NC(=O)NCC[C@@H]2NC(=O)[C@H](Cc3c[nH]c4ccccc34)NC(=O)[C@@H]3C[C@@H](O)CN3C(=O)[C@H](CC(C)C)NC(=O)[C@H](CNC(=O)Nc3ccc(OCCCCCCC)cc3)NC(=O)[C@@H]3CCCN3C(=O)[C@H](CC(N)=O)NC(=O)[C@H](C)N(C)C(=O)[C@H](Cc3ccc(O)cc3)NC(=O)CSC[C@@H](C(=O)NCC(N)=O)NC(=O)[C@H](CC(C)C)NC(=O)[C@H](CCCC)N(C)C(=O)[C@H](CCCC)N(C)C(=O)[C@H](Cc3cn(CC(=O)O)c4ccccc34)NC2=O)cc1` [Example 1090] ({CH2CO}-Y[NMeA]NP[Dap]([CO-X6])L[Hyp]W[Dab]([CO-X6])[Trp(1-CH2COOH)][NMeNle][NMeNle]LCG-NH2; thioether N-14) belongs 242 nM; to `CCCC[C@H]1C(=O)N(C)[C@@H](CCCC)C(=O)N[C@@H](CC(C)C)C(=O)N[C@H](C(=O)NCC(N)=O)CSCC(=O)N[C@@H](Cc2ccc(O)cc2)C(=O)N(C)[C@@H](C)C(=O)N[C@@H](CC(N)=O)C(=O)N2CCC[C@H]2C(=O)N[C@@H](CNC(=S)Nc2ccc(-n3cnc(Cl)c3)c(OC)c2)C(=O)N[C@@H](CC(C)C)C(=O)N2C[C@H](O)C[C@H]2C(=O)N[C@@H](Cc2c[nH]c3ccccc23)C(=O)N[C@@H](CCNC(=S)Nc2ccc(-n3cnc(Cl)c3)c(OC)c2)C(=O)N[C@@H](Cc2cn(CC(=O)O)c3ccccc23)C(=O)N1C` [Example 1091] ({CH2CO}-Y[NMeA]NP[Dap](X23)L[Hyp]W[Dab](X23)[Trp(1-CH2COOH)][NMeNle][NMeNle]LCG-NH2; thioether N-14), 4.3 nM; to `CCCC[C@H]1C(=O)N(C)[C@@H](CCCC)C(=O)N[C@@H](CC(C)C)C(=O)N[C@H](C(=O)NCC(N)=O)CSCC(=O)N[C@@H](Cc2ccc(O)cc2)C(=O)N(C)[C@@H](C)C(=O)N[C@@H](CC(N)=O)C(=O)N2CCC[C@H]2C(=O)N[C@@H](CNC(=S)Nc2ccc(-n3cnc(C)n3)c(OC)c2)C(=O)N[C@@H](CC(C)C)C(=O)N2C[C@H](O)C[C@H]2C(=O)N[C@@H](Cc2c[nH]c3ccccc23)C(=O)N[C@@H](CCNC(=S)Nc2ccc(-n3cnc(C)n3)c(OC)c2)C(=O)N[C@@H](Cc2cn(CC(=O)O)c3ccccc23)C(=O)N1C` [Example 1092] ({CH2CO}-Y[NMeA]NP[Dap](X24)L[Hyp]W[Dab](X24)[Trp(1-CH2COOH)][NMeNle][NMeNle]LCG-NH2; thioether N-14), 3.4 nM.
Turning to `CCCC[C@H]1C(=O)N(C)[C@@H](CCCC)C(=O)N[C@@H](CC(C)C)C(=O)N[C@H](C(=O)NCC(N)=O)CSCC(=O)N[C@@H](Cc2ccc(O)cc2)C(=O)N(C)[C@@H](C)C(=O)N[C@@H](CC(N)=O)C(=O)N2CCC[C@H]2C(=O)N[C@@H](CNC(=S)Nc2ccc(N3CCOCC3)nc2)C(=O)N[C@@H](CC(C)C)C(=O)N2C[C@H](O)C[C@H]2C(=O)N[C@@H](Cc2c[nH]c3ccccc23)C(=O)N[C@@H](CCNC(=S)Nc2ccc(N3CCOCC3)nc2)C(=O)N[C@@H](Cc2cn(CC(=O)O)c3ccccc23)C(=O)N1C` [Example 1093] ({CH2CO}-Y[NMeA]NP[Dap](X94)L[Hyp]W[Dab](X94)[Trp(1-CH2COOH)][NMeNle][NMeNle]LCG-NH2; thioether N-14), the IC50 was 3.3 nM.
Still for that read-out and setting: to `CCCC[C@H]1C(=O)N(C)[C@@H](CCCC)C(=O)N[C@@H](CC(C)C)C(=O)N[C@H](C(=O)NCC(N)=O)CSCC(=O)N[C@@H](Cc2ccc(O)cc2)C(=O)N(C)[C@@H](C)C(=O)N[C@@H](CC(N)=O)C(=O)N2CCC[C@H]2C(=O)N[C@@H](CNC(=S)Nc2ccc(-n3cccn3)cc2)C(=O)N[C@@H](CC(C)C)C(=O)N2C[C@H](O)C[C@H]2C(=O)N[C@@H](Cc2c[nH]c3ccccc23)C(=O)N[C@@H](CCNC(=S)Nc2ccc(-n3cccn3)cc2)C(=O)N[C@@H](Cc2cn(CC(=O)O)c3ccccc23)C(=O)N1C` [Example 1094] ({CH2CO}-Y[NMeA]NP[Dap](X80)L[Hyp]W[Dab](X80)[Trp(1-CH2COOH)][NMeNle][NMeNle]LCG-NH2; thioether N-14) belongs 2.4 nM; to `CCCC[C@H]1C(=O)N(C)[C@@H](CCCC)C(=O)N[C@@H](CC(C)C)C(=O)N[C@H](C(=O)NCC(N)=O)CSCC(=O)N[C@@H](Cc2ccc(O)cc2)C(=O)N(C)[C@@H](C)C(=O)N[C@@H](CC(N)=O)C(=O)N2CCC[C@H]2C(=O)N[C@@H](CNC(=O)c2ccccc2-c2ccc(OC)cc2)C(=O)N[C@@H](CC(C)C)C(=O)N2C[C@H](O)C[C@H]2C(=O)N[C@@H](Cc2c[nH]c3ccccc23)C(=O)N[C@@H](CCNC(=O)c2ccccc2-c2ccc(OC)cc2)C(=O)N[C@@H](Cc2cn(CC(=O)O)c3ccccc23)C(=O)N1C` [Example 1095] ({CH2CO}-Y[NMeA]NP[Dap](Benzoyl(2-(4-MeOPh)))L[Hyp]W[Dab](Benzoyl(2-(4-MeOPh)))[Trp(1-CH2COOH)][NMeNle][NMeNle]LCG-NH2; thioether N-14), 5.7 nM.
